Test results reported in patent US10028992B2, “Methods of treating muscular dystrophy” (BOARD OF REGENTS OF THE NEVADA SYSTEM OF HIGHER EDUCATION …, priority 2012, dated 2018).

Test system: α7 integrin promoter
Assay: muscle cell-based assay: α7βgal+/− myoblasts/myotubes, LacZ reporter, β-galactosidase cleavage of FDG
Parameters: species or system mouse; Results in α7+/− β-galactosidase assay: scale not given here
Conditions: Myoblasts
Summary of the method: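 Fluorescein generated from FDG by β-galactosidase reports α7 integrin promoter activity in differentiated myoblasts from α7+/− LacZ knock-in pups. Screening hits then went to dose-response, western blotting and a myostatin counterscreen.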

Compound | Results in α7+/− β-galactosidase assay (0.5 uM) | Results in α7+/− β-galactosidase assay (1 uM) | Results in α7+/− β-galactosidase assay (5 uM) | Results in α7+/− β-galactosidase assay (10 uM) | Results in α7+/− β-galactosidase assay (20 uM) | Results in α7+/− β-galactosidase assay (40 uM)
O=C1Nc2ccccc2/C1=C\c1ccnc2ccccc12 [drawing 526] | 0.2132 | 0.0742 | 0.06287 | 0.1705 | −0.2337 | −0.1575
CCc1c(C)sc(NC(=O)c2ccco2)c1C#N [drawing 527] | 0.01962 | 0.03303 | −0.06162 | −0.02233 | −0.1898 | −0.1237
CCc1c(C)sc(NC(=O)c2ccco2)c1C#N [drawing 528] | 0.08233 | 0.08072 | 0.4585 | 0.07353 | 0.153 | 0.1981
O=C1Nc2ccccc2/C1=C/c1ccccc1Cl [drawing 529] | 0.2214 | 0.2193 | −0.03271 | −0.1355 | −0.2535 | −0.6555
COc1cccc(CN2CCN(Cc3ccco3)CC2)c1.O=C(O)C(=O)O [drawing 530] | 0.2392 | 0.1359 | 0.06492 | −0.03174 | 0.218 | 0.2155
CC(C)Oc1ccc(C(=O)/C=C2\C(=O)Nc3ccccc32)cc1 [drawing 531] | 0.3276 | 0.2225 | −0.3766 | −0.6765 | −0.7978 | −0.9731
COc1ccc(NC(=O)C2(N(C(=O)Cn3nnnc3N)c3ccc(OC)cc3)CCCCC2)cc1 [drawing 532] | 0.2391 | 0.1433 | 0.4897 | −0.1284 | −0.274 | −0.3931
COc1ccc(CCNC(=O)Cn2nnc(C(=O)Nc3ccc(Br)cc3)c2N)cc1OC [drawing 533] | 0.1152 | 0.03848 | −0.06784 | −0.0702 | −0.3276 | −0.5608
CC1(C)Cc2c(cnn2-c2cccc(F)c2)C(NC(=O)CCc2cnccn2)C1 (stereo not drawn) [drawing 534] | 0.2096 | 0.1101 | −0.01619 | −0.03841 | 0.02411 | −0.09429
O=C1Nc2ccccc2/C1=C/c1cccnc1 [drawing 535] | 0.259 | 0.1621 | −0.1077 | −0.235 | −0.5331 | −0.7528
CNC(=O)CSc1nnc(-c2ccc3c(c2)OCO3)n1C [drawing 536] | 0.1583 | 0.04195 | 0.03203 | 0.03846 | −0.04001 | −0.01341
Cc1ccccc1NC(=O)NCCCN1CCN(C)CC1 [drawing 537] | 0.06224 | 0.06912 | 0.01544 | −0.04766 | 0.09447 | 0.1887
CC1(C)Cc2c(c(N3CCOCC3)nc3sc(C(=O)Nc4ccccc4)c(N)c23)CO1 [drawing 538] | 0.2085 | 0.2916 | −0.3961 | −0.7131 | −0.4322 | −0.3536
COc1ccc(N2CCN(C(=O)c3cc(C)on3)CC2)cc1 [drawing 539] | 0.06118 | 0.157 | 0.07966 | 0.01243 | 0.1011 | 0.07367
CCOn1c(=O)c(-c2ccccc2)[n+]([O-])c2ccccc21 [drawing 540] | 0.2811 | 0.2862 | 0.8432 | −0.07816 | 0.1113 | 0.0836
O=S(=O)(N/C(=N/C1CCCCC1)c1ccccc1F)c1ccccc1 [drawing 542] | 0.02381 | 0.1877 | 0.03277 | 0.0429 | 0.04651 | 0.01846
CCCCNc1nnc(Cc2ccc(Cl)cc2)c(O)n1 [drawing 543] | 0.1426 | 0.2067 | −0.06804 | −0.2224 | −0.259 | −0.2813
CC(C)CN(C(=O)c1cccc(Cl)c1)c1c(N)n(Cc2ccccc2)c(=O)[nH]c1=O [drawing 544] | 0.1169 | 0.2337 | 0.01239 | −0.05318 | −0.1028 | −0.2221
Cc1nc(O)nc(O)c1S(=O)(=O)Nc1ccc(F)cc1Cl [drawing 545] | 0.03945 | 0.1557 | 0.0782 | −0.00196 | 0.02136 | −0.01244
Cc1nnc(-c2ccc(N3CCOCC3)c([N+](=O)[O-])c2)o1 [drawing 546] | −0.06474 | −0.06237 | −0.05162 | −0.06761 | −0.1275 | −0.08865
Cc1cc(C)cc(OCC(=O)N/N=C/c2ccccn2)c1 [drawing 547] | 0.02525 | 0.04969 | 0.0722 | −0.00591 | 0.8477 | −0.1757
